# Patent US20230357269A1 (LES LABORATOIRES SERVIER, priority 2020, published 2023)
# Biological target: human recombinant LRRK2 protein (Homo sapiens (Human), UniProt Q5S007)
# Assay: LRRK2 Kinase Activity Assay (ADP-Glo)
# Type: biochemical
# Conditions: LRRK2 wt; LRRKtide peptide and ATP substrates; 1h-incubation at 37° C.
# Method in brief: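 Recombinant human LRRK2 acted on LRRKtide peptide and ATP for 1 h at 37 °C. ADP formed was detected by ADP-Glo luminescence (ATP depletion, then ADP-to-ATP conversion and luciferase). IC50s came from curve fits over 10 concentrations (N=2).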
# Sequence of human recombinant LRRK2 protein (Q5S007 whole entry): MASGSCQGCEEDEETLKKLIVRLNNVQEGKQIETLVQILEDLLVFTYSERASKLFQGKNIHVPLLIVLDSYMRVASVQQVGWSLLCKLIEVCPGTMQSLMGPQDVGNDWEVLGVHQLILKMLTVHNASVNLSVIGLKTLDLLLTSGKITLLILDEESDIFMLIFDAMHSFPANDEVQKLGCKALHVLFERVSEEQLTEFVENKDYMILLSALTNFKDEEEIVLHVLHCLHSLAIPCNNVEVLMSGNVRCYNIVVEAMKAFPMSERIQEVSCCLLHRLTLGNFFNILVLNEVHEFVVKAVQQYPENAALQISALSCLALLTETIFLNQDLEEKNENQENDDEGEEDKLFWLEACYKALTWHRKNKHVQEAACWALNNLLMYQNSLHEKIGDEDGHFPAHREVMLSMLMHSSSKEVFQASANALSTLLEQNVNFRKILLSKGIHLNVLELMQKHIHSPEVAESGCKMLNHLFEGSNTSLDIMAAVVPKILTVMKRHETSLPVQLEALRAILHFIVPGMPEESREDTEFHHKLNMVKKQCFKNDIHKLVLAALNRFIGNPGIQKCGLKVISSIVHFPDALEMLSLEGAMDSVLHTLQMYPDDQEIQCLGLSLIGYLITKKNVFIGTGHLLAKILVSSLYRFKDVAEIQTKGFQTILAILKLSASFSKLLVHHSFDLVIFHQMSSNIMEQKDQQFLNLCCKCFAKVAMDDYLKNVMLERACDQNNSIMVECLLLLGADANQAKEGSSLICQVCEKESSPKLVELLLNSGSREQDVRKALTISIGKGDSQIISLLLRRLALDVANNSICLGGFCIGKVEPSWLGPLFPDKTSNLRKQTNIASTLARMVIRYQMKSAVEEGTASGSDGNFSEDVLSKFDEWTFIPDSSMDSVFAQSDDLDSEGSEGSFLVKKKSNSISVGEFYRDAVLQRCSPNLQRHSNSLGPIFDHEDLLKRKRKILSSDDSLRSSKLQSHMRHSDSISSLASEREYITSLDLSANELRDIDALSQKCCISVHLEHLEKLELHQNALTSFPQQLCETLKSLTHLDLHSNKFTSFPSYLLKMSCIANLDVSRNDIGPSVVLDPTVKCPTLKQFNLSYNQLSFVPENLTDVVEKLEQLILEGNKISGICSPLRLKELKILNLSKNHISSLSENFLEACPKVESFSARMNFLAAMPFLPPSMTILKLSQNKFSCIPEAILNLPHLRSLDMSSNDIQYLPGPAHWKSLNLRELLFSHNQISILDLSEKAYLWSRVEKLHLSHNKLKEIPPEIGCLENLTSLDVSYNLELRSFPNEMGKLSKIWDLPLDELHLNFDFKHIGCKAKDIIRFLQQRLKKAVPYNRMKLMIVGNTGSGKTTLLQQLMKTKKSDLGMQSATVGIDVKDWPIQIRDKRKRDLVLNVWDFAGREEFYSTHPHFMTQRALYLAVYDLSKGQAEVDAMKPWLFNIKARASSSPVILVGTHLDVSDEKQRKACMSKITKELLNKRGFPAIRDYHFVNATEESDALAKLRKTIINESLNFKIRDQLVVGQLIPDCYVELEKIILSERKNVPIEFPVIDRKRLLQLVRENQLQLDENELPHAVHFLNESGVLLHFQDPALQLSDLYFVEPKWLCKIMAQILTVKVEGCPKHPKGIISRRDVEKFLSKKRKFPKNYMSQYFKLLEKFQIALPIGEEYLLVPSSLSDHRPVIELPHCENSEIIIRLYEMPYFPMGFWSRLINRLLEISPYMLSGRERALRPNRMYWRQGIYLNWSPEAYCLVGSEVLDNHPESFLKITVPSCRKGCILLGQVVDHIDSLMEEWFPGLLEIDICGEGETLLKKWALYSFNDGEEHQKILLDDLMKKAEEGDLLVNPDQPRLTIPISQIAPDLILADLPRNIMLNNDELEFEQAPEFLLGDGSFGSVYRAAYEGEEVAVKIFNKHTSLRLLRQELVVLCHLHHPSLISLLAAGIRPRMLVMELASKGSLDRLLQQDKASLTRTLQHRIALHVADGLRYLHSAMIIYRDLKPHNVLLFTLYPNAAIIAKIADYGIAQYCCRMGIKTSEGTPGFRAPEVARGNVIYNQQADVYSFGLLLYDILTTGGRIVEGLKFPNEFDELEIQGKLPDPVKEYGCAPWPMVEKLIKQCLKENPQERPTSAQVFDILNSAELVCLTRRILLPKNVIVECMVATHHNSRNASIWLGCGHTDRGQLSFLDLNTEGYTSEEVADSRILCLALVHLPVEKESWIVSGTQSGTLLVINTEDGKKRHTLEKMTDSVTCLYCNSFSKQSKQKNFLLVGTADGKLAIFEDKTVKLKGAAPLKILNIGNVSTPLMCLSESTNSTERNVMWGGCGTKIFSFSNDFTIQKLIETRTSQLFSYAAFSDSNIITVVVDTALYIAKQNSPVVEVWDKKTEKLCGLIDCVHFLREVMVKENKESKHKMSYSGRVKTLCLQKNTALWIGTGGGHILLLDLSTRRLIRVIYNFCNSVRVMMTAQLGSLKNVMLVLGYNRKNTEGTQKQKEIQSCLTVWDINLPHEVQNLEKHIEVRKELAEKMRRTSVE
row,SMILES,IC50 [µM]
1,"C[C@@H]1CCNC(=O)OCc2cccc(c2)-c2n[nH]c3cc(F)c(cc23)O1 [Example 132, (13R)-16-fluoro-13-methyl-8,14-dioxa-10,19,20-triazatetracyclo[13.5.2.1^2,6.0^18,21]tricosa-1(20),2,4,6(23),15,17,21-heptaen-9-one]",< 0.01
2,"CO[C@@H]1CCN(c2cc3nc(n2)COC(=O)NCC[C@@H](C)Oc2ccc4[nH]nc-3c4c2)C1 [Example 137, (13R)-4-[(3R)-3-methoxypyrrolidin-1-yl]-13-methyl-8,14-dioxa-5,10,19,20,23-pentaazatetracyclo[13.5.2.1^2,6.0^18,21]tricosa-1(20),2,4,6(23),15,17,21-heptaen-9-one]",< 0.01
3,"O=C1NCCOc2ccc3[nH]nc(c3c2)-c2cnn(c2)CCCO1 [Example 121, 9,14-dioxa-4,5,11,19,20-pentaazatetracyclo[13.5.2.1^2,5.0^18,21]tricosa-1(20),2(23),3,15,17,21-hexaen-10-one]",0.1 to 1
4,"C[C@@H]1CCNC(=O)OCc2nc(cc(N3CCCC3)n2)-c2n[nH]c3ccc(cc23)O1 [Example 129, (13R)-13-methyl-4-(pyrrolidin-1-yl)-8,14-dioxa-5,10,19,20,23-pentaaza tetracyclo[13.5.2.1^2,6.0^18,21]tricosa-1(20),2,4,6(23),15,17,21-heptaen-9-one]",< 0.01
5,"O=C1NCCCOc2ccc3[nH]nc(c3c2)-c2ccn(n2)CCO1 [Example 84, 8,14-dioxa-5,10,19,20,23-pentaazatetracyclo[13.5.2.1^2,5.0^18,21]tricosa-1(20),2(23),3,15(22),16,18(21)-hexaen-9-one]",0.01 to 0.1
6,"C[C@@H]1CCNC(=O)OCc2cccc(c2F)-c2n[nH]c3ccc(cc23)O1 [Example 120, (13R)-23-fluoro-13-methyl-8,14-dioxa-10,19,20-triazatetracyclo[13.5.2.1^2,6.0^18,21]tricosa-1(20),2,4,6(23),15,17,21-heptaen-9-one]",0.1 to 1
7,"CC1CNC(=O)OCc2cccc(c2)-c2n[nH]c3ccc(cc23)OC1 (centres unmarked) [Example 86, 12-methyl-8,14-dioxa-10,19,20-triazatetracyclo[13.5.2.1^2,6.0^18,21]tricosa-1(20),2(23),3,5,15(22),16,18(21)-heptaen-9-one]",< 0.01
8,"C[C@H]1OC(=O)NCCCOc2ccc3[nH]nc(c3c2)-c2cc(F)cc1c2 (single isomer, unassigned) [Example 109, (7R)- or (7S)-4-fluoro-7-methyl-8,14-dioxa-10,19,20-triazatetracyclo[13.5.2.1^2,6.0^18,21]tricosa-1(20),2,4,6(23),15,17,21-heptaen-9-one]",< 0.01
9,"CC(C)N1CCN(c2cc3cc(c2)-c2n[nH]c4ccc(cc24)OCCCNC(=O)OC3)CC1 [Example 13, 4-[4-(propan-2-yl)piperazin-1-yl]-8,14-dioxa-10,19,20-triazatetracyclo[13.5.2.1^2,6.0^18,21]tricosa-1(20),2,4,6(23),15,17,21-heptaen-9-one]",< 0.01
10,"C[C@@H]1CCNC(=O)OCc2cncc(c2)-c2n[nH]c3ccc(nc23)O1 [Example 164, (13R)-13-methyl-8,14-dioxa-4,10,19,20,22-pentaazatetracyclo[13.5.2. 1^2,6.0^18,21]tricosa-1(20),2(23),3,5,15,17,21-heptaen-9-one]",< 0.01
11,"O=C1NCCCOc2ccc3[nH]nc(c3c2)-c2cccc(n2)CO1 [Example 4, 8,14-dioxa-10,19,20,23-tetraazatetracyclo[13.5.2.1^2,6.0^18,21]tricosa-1(20),2,4, 6(23),15,17,21-heptaen-9-one]",< 0.01
12,"CN1CCCOc2ccc3[nH]nc(c3c2)-c2cncc(c2)COC1=O [Example 2, 10-methyl-8,14-dioxa-4,10,19,20-tetraazatetracyclo[13.5.2.1^2,6.0^18,21]tricosa-1(20),2,4,6(23),15,17,21-heptaen-9-one]",0.01 to 0.1
13,"O=C1NCCCOc2ccc3[nH]nc(c3c2)-c2nc(cs2)CCO1 [Example 135, 8,14-dioxa-3-thia-10,19,20,23-tetraazatetracyclo[13.5.2.1^2,5.0^18,21]tricosa-1(20),2(23),4,15,17,21-hexaen-9-one]",< 0.01
14,"CN1CCN(c2ccc3cc2COC(=O)NCCCOc2ccc4[nH]nc-3c4c2)CC1 [Example 49, 5-(4-methylpiperazin-1-yl)-8,14-dioxa-10,19,20-triazatetracyclo[13.5.2.1^2,6.0^18,21]tricosa-1(20),2,4,6(23),15,17,21-heptaen-9-one]",0.01 to 0.1

# The remaining lines, values ahead:
row,IC50 [µM],SMILES
1,< 0.01,"COCCOc1cc2cc(c1)-c1n[nH]c3ccc(cc13)OCCCNC(=O)OC2 [Example 70, 4-(2-methoxyethoxy)-8,14-dioxa-10,19,20-triazatetracyclo[13.5.2.1^2,6.0^18,21]tricosa-1(20),2,4,6(23),15,17,21-heptaen-9-one]"
2,< 0.01,"C[C@@H]1CN(c2cc3cc(c2)-c2n[nH]c4ccc(cc24)OCCCNC(=O)OC3)C[C@H](C)O1 [Example 17, 4-[(2R,6S)-2,6-dimethylmorpholin-4-yl]-8,14-dioxa-10,19,20-triazatetra cyclo[13.5.2.1^2,6.0^18,21]tricosa-1(20),2,4,6(23),15,17,21-heptaen-9-one]"
3,< 0.01,"COCCN(C)c1cc2cc(c1)-c1n[nH]c3ccc(cc13)OCCCNC(=O)OC2 [Example 26, 4-[(2-methoxyethyl)(methyl)amino]-8,14-dioxa-10,19,20-triazatetracyclo[13.5.2.1^2,6.0^18,21]tricosa-1(20),2,4,6(23),15,17,21-heptaen-9-one]"
4,< 0.01,"COc1cc2cc(c1)-c1n[nH]c3ccc(cc13)OCCCNC(=O)OC2 [Example 8, 4-methoxy-8,14-dioxa-10,19,20-triazatetracyclo[13.5.2.1^2,6.0^18,21]tricosa-1(20),2,4,6(23),15,17,21-heptaen-9-one]"
5,< 0.01,"CN(c1cc2cc(c1)-c1n[nH]c3ccc(cc13)OCCCNC(=O)OC2)C1COC1 [Example 52, 4-[methyl(oxetan-3-yl)amino]-8,14-dioxa-10,19,20-triazatetracyclo[13.5.2.1^2,6.0^18,21]tricosa-1(20),2,4,6(23),15,17,21-heptaen-9-one]"
6,< 0.01,"CN1CCN(Cc2cc3cc(c2)-c2n[nH]c4ccc(cc24)OCCCNC(=O)OC3)CC1 [Example 44, 4-[(4-methylpiperazin-1-yl)methyl]-8,14-dioxa-10,19,20-triazatetracyclo[13.5.2.1^2,6.0^18,21]tricosa-1(20),2,4,6(23),15,17,21-heptaen-9-one]"
7,< 0.01,"COCCC1CCN(c2cc3cc(c2)-c2n[nH]c4ccc(cc24)OCCCNC(=O)OC3)CC1 [Example 23, 4-[4-(2-methoxyethyl)piperidin-1-yl]-8,14-dioxa-10,19,20-triazatetracyclo[13.5.2.1^2,6.0^18,21]tricosa-1(20),2,4,6(23),15,17,21-heptaen-9-one]"
8,< 0.01,"O=C1NCCCOc2ccc3[nH]nc(c3c2)-c2cc(cc(N3CC[C@@H](O)C3)c2)CO1 [Example 25, 4-[(3R)-3-hydroxypyrrolidin-1-yl]-8,14-dioxa-10,19,20-triazatetracyclo[13.5.2.1^2,6.0^18,21]tricosa-1(20),2,4,6(23),15,17,21-heptaen-9-one]"
9,< 0.01,"O=C1NCCCOc2ccc3[nH]nc(c3c2)-c2cc(cc(N3CC[C@H](O)C3)c2)CO1 [Example 59, 4-[(3S)-3-hydroxypyrrolidin-1-yl]-8,14-dioxa-10,19,20-triazatetracyclo[13.5.2.1^2,6.0^18,21]tricosa-1(20),2,4,6(23),15,17,21-heptaen-9-one]"
